Data published in ChEMBL document CHEMBL1201862, “PubChem BioAssay data set” (2004).
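48-hour exposure; five concentrations; linearly interpolated endpoints. GI50 is the concentration that inhibits growth by half.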 Activity calls are given as the source filed them. Rule as the data show it: active = GI50 up to about 1.1 µM and inactive = higher.

Legend:
Assay in all cases: NCI-60 cell line screen, 48 h
OVCAR-5 = test system: OVCAR-5
NCI-H23 = test system: NCI-H23
SNB-78 = test system: SNB-78
HOP-62 = test system: HOP-62
COLO 205 = test system: COLO 205
786-0 = test system: 786-0
DMS-114 = test system: DMS-114
OVCAR-3 = test system: OVCAR-3
UACC-62 = test system: UACC-62
A549 = test system: A549
RPMI-8226 = test system: RPMI-8226
SF-539 = test system: SF-539
LXFL 529 = test system: LXFL 529
CCRF-CEM = test system: CCRF-CEM
HT-29 = test system: HT-29
NCI-H522 = test system: NCI-H522
SW-620 = test system: SW-620
UO-31 = test system: UO-31
Malme-3M = test system: Malme-3M
SF-295 = test system: SF-295
KM12 = test system: KM12
MOLT-4 = test system: MOLT-4
A498 = test system: A498
SF-268 = test system: SF-268
LOX IMVI = test system: LOX IMVI
KM-20L2 = test system: KM-20L2
SK-OV-3 = test system: SK-OV-3
HCC 2998 = test system: HCC 2998
HCT-15 = test system: HCT-15
NCI-H226 = test system: NCI-H226
SNB-75 = test system: SNB-75
HCT-116 = test system: HCT-116
U-251 = test system: U-251
HOP-18 = test system: HOP-18
ACHN = test system: ACHN
RXF 393 = test system: RXF 393
TK-10 = test system: TK-10
M14 = test system: M14
IGROV-1 = test system: IGROV-1
SK-MEL-2 = test system: SK-MEL-2
SK-MEL-28 = test system: SK-MEL-28
SK-MEL-5 = test system: SK-MEL-5
CAKI-1 = test system: CAKI-1
NCI-H460 = test system: NCI-H460
OVCAR-4 = test system: OVCAR-4
M19-MEL = test system: M19-MEL
SN12C = test system: SN12C
SNB-19 = test system: SNB-19
K562 = test system: K562
UACC-257 = test system: UACC-257
OVCAR-8 = test system: OVCAR-8
DMS-273 = test system: DMS-273
SR = test system: SR
HOP-92 = test system: HOP-92
XF498 = test system: XF498
EKVX = test system: EKVX
DLD-1 = test system: DLD-1

OC12c3ccccc3C1CCCCCCCCCC21OCCO1 (stereo not drawn)
GI50 (OVCAR-5): > 100 µM (inactive)
GI50 (NCI-H23): > 100 µM (inactive)
GI50 (SNB-78): > 100 µM (inactive)
GI50 (HOP-62): > 100 µM (inactive)
GI50 (COLO 205): > 100 µM (inactive)
GI50 (786-0): > 100 µM (inactive)
GI50 (DMS-114): > 100 µM (inactive)
GI50 (OVCAR-3): > 100 µM (inactive)
GI50 (UACC-62): > 100 µM (inactive)
GI50 (A549): > 100 µM (inactive)
GI50 (RPMI-8226): > 100 µM (inactive)
GI50 (SF-539): > 100 µM (inactive)
GI50 (LXFL 529): > 100 µM (inactive)
GI50 (CCRF-CEM): > 100 µM (inactive)
GI50 (HT-29): > 100 µM (inactive)
GI50 (NCI-H522): > 100 µM (inactive)
GI50 (SW-620): > 100 µM (inactive)
GI50 (UO-31): > 100 µM (inactive)
GI50 (Malme-3M): > 100 µM (inactive)
GI50 (SF-295): > 100 µM (inactive)
GI50 (KM12): > 100 µM (inactive)
GI50 (MOLT-4): > 100 µM (inactive)
GI50 (A498): > 100 µM (inactive)
GI50 (SF-268): > 100 µM (inactive)
GI50 (LOX IMVI): > 100 µM (inactive)
GI50 (KM-20L2): > 100 µM (inactive)
GI50 (SK-OV-3): > 100 µM (inactive)
GI50 (HCC 2998): > 100 µM (inactive)
GI50 (HCT-15): > 100 µM
GI50 (NCI-H226): > 100 µM (inactive)
GI50 (SNB-75): > 100 µM (inactive)
GI50 (HCT-116): > 100 µM (inactive)
GI50 (U-251): > 100 µM (inactive)
GI50 (HOP-18): > 100 µM (inactive)
GI50 (ACHN): > 100 µM (inactive)
GI50 (RXF 393): > 100 µM (inactive)
GI50 (TK-10): > 100 µM (inactive)
GI50 (M14): > 100 µM (inactive)
GI50 (IGROV-1): > 100 µM (inactive)
GI50 (SK-MEL-2): > 100 µM (inactive)
GI50 (SK-MEL-28): > 100 µM (inactive)
GI50 (SK-MEL-5): > 100 µM (inactive)
GI50 (CAKI-1): > 100 µM (inactive)
GI50 (NCI-H460): > 100 µM (inactive)
GI50 (OVCAR-4): > 100 µM (inactive)
GI50 (M19-MEL): > 100 µM (inactive)
GI50 (SN12C): > 100 µM (inactive)
GI50 (SNB-19): > 100 µM (inactive)
GI50 (K562): > 100 µM (inactive)
GI50 (UACC-257): > 100 µM (inactive)
GI50 (OVCAR-8): > 100 µM (inactive)
GI50 (DMS-273): > 100 µM (inactive)

Cc1ccc(C2OC(COCc3ccc(Cl)cc3)C(OCc3ccc(Cl)cc3)C2O)cc1 (stereo not drawn)
GI50 (OVCAR-5): > 100 µM (inactive)
GI50 (NCI-H23): 6.44 µM (inactive)
GI50 (SNB-78): 14.3 µM (inactive)
GI50 (COLO 205): 22.8 µM (inactive)
GI50 (786-0): > 10 µM (inactive)
GI50 (DMS-114): 5.24 µM (inactive)
GI50 (SR): 3.22 µM (inactive)
GI50 (OVCAR-3): 10.7 µM (inactive)
GI50 (UACC-62): 4.42 µM (inactive)
GI50 (A549): 9.42 µM (inactive)
GI50 (RPMI-8226): 4.76 µM (inactive)
GI50 (SF-539): 16 µM (inactive)
GI50 (LXFL 529): 8.47 µM (inactive)
GI50 (HT-29): 7.69 µM (inactive)
GI50 (HOP-92): 3.18 µM (inactive)
GI50 (XF498): 10.2 µM (inactive)
GI50 (SW-620): 14.3 µM (inactive)
GI50 (UO-31): 6.76 µM (inactive)
GI50 (Malme-3M): > 10 µM (inactive)
GI50 (SF-295): 12.3 µM (inactive)
GI50 (KM12): 9.38 µM (inactive)
GI50 (MOLT-4): 2.06 µM (inactive)
GI50 (KM-20L2): 12.6 µM (inactive)
GI50 (SK-OV-3): 2.63 µM (inactive)
GI50 (HCC 2998): 19.3 µM (inactive)
GI50 (HCT-15): 7.85 µM
GI50 (NCI-H226): 1.36 µM (inactive)
GI50 (SNB-75): 4.37 µM (inactive)
GI50 (EKVX): 13 µM (inactive)
GI50 (HCT-116): 11.5 µM (inactive)
GI50 (U-251): 10.5 µM (inactive)
GI50 (HOP-18): 79.4 µM (inactive)
GI50 (ACHN): 15.1 µM (inactive)
GI50 (DLD-1): 9.29 µM (inactive)
GI50 (RXF 393): 3.19 µM (inactive)
GI50 (TK-10): 12.7 µM (inactive)
GI50 (IGROV-1): 8.89 µM (inactive)
GI50 (SK-MEL-2): 11.1 µM (inactive)
GI50 (SK-MEL-28): 31.1 µM (inactive)
GI50 (SK-MEL-5): 12.1 µM (inactive)
GI50 (CAKI-1): 11.4 µM (inactive)
GI50 (NCI-H460): 4.49 µM (inactive)
GI50 (OVCAR-4): 17.8 µM (inactive)
GI50 (M19-MEL): 11.4 µM (inactive)
GI50 (SN12C): 3.65 µM (inactive)
GI50 (SNB-19): 17.8 µM (inactive)
GI50 (K562): 4.42 µM (inactive)
GI50 (UACC-257): 17 µM (inactive)
GI50 (OVCAR-8): 13.7 µM (inactive)
GI50 (DMS-273): 5.82 µM (inactive)

OC(c1ccccc1Br)(c1ccccc1Br)C(F)(F)F
GI50 (OVCAR-5): 25.4 µM (inactive)
GI50 (NCI-H23): 27.9 µM (inactive)
GI50 (HOP-62): 28 µM (inactive)
GI50 (COLO 205): 18.2 µM (inactive)
GI50 (786-0): 19.1 µM (inactive)
GI50 (DMS-114): 20.8 µM (inactive)
GI50 (SR): 24.6 µM (inactive)
GI50 (OVCAR-3): 26.9 µM (inactive)
GI50 (UACC-62): 26.8 µM (inactive)
GI50 (A549): 34.1 µM (inactive)
GI50 (SF-539): 33.2 µM (inactive)
GI50 (LXFL 529): 42.1 µM (inactive)
GI50 (HT-29): 14.7 µM (inactive)
GI50 (NCI-H522): 11.6 µM (inactive)
GI50 (XF498): 23.1 µM (inactive)
GI50 (SW-620): 19.4 µM (inactive)
GI50 (UO-31): 26.7 µM (inactive)
GI50 (Malme-3M): 24 µM (inactive)
GI50 (SF-295): 21.1 µM (inactive)
GI50 (KM12): 15.6 µM (inactive)
GI50 (MOLT-4): 14.9 µM (inactive)
GI50 (A498): 30.1 µM (inactive)
GI50 (SF-268): 20.9 µM (inactive)
GI50 (LOX IMVI): 20.9 µM (inactive)
GI50 (KM-20L2): 24.5 µM (inactive)
GI50 (SK-OV-3): 36.5 µM (inactive)
GI50 (HCC 2998): 0.322 µM (active)
GI50 (HCT-15): 30.4 µM
GI50 (NCI-H226): 10.9 µM (inactive)
GI50 (SNB-75): 33 µM (inactive)
GI50 (EKVX): 33.9 µM (inactive)
GI50 (HCT-116): 19.7 µM (inactive)
GI50 (U-251): 18.6 µM (inactive)
GI50 (HOP-18): 42.8 µM (inactive)
GI50 (ACHN): 20.1 µM (inactive)
GI50 (DLD-1): 37.5 µM (inactive)
GI50 (RXF 393): 19.6 µM (inactive)
GI50 (TK-10): 52.1 µM (inactive)
GI50 (M14): 34.7 µM (inactive)
GI50 (IGROV-1): 40.4 µM (inactive)
GI50 (SK-MEL-2): 18.5 µM (inactive)
GI50 (SK-MEL-28): 27.7 µM (inactive)
GI50 (CAKI-1): 48.1 µM (inactive)
GI50 (NCI-H460): 27.7 µM (inactive)
GI50 (OVCAR-4): 29.2 µM (inactive)
GI50 (M19-MEL): 23.9 µM (inactive)
GI50 (SN12C): 19.1 µM (inactive)
GI50 (SNB-19): > 10 µM (inactive)
GI50 (UACC-257): 37.8 µM (inactive)
GI50 (OVCAR-8): 39.4 µM (inactive)
GI50 (DMS-273): 20.3 µM (inactive)
